Measurements taken from patent EP0726261A1, “Herbidical 1,2,4 thiadiazoles” (American Cyanamid Company, priority 1995, dated 1996).

Experiments:
Assay type in all cases: in vivo
Triticum aestivum [1] = assay: Preemergence herbicidal activity (Example 67); parameters: herbicide rating, TRZAW: scale not given here; settings: pre, 800 g/ha
Outline: (§1)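 Soil surface of seeded cups sprayed with compound (800g/ha, 400 L/ha volume) from acetone/0.5% TRITON X-155 solutions diluted in water. Herbicidal effect scored on a rating scale roughly 1-3 weeks later, plants held in greenhouse.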

Chenopodium album [2] = assay: Preemergence herbicidal activity (Example 67); settings: pre, 800 g/ha
Outline: as §1

Zea mays [3] = assay: Preemergence herbicidal activity (Example 67); settings: pre, 800 g/ha
Outline: as §1

Abutilon theophrasti [4] = assay: Preemergence herbicidal activity (Example 67); settings: pre, 800 g/ha
Outline: as §1

Ipomoea hederacea [5] = assay: Preemergence herbicidal activity (Example 67); settings: pre, 800 g/ha
Outline: as §1

Veronica persica [6] = assay: Preemergence herbicidal activity (Example 67); settings: pre, 800 g/ha
Outline: as §1

Galium aparine [7] = assay: Preemergence herbicidal activity (Example 67); settings: pre, 800 g/ha
Outline: as §1

Helianthus annuus [8] = assay: Preemergence herbicidal activity (Example 67); settings: pre, 800 g/ha
Outline: as §1

Amaranthus retroflexus [9] = assay: Preemergence herbicidal activity (Example 67); settings: pre, 800 g/ha
Outline: as §1

Hordeum vulgare [10] = assay: Preemergence herbicidal activity (Example 67); parameters: herbicide rating, HORVW: scale not given here; settings: pre, 800 g/ha
Outline: as §1

Setaria viridis [11] = assay: Preemergence herbicidal activity (Example 67); parameters: herbicide rating, SETVI: scale not given here; settings: pre, 800 g/ha
Outline: as §1

Alopecurus myosuroides [12] = assay: Preemergence herbicidal activity (Example 67); parameters: herbicide rating, ALOMY: scale not given here; settings: pre, 800 g/ha
Outline: as §1

Chenopodium album [13] = assay: Postemergence herbicidal activity (Example 67); settings: pos, 800 g/ha
Outline: (§2)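 Rating followed 10–21 days of greenhouse growth after treatment. Treatment was a single spray at a dose of 800 g/ha (400 L/ha spray volume) applied to plants 3–6 weeks old, using a water-diluted acetone solution containing 0.5% Triton X-155.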

Setaria viridis [14] = assay: Postemergence herbicidal activity (Example 67); settings: pos, 800 g/ha
Outline: as §2

Triticum aestivum [15] = assay: Postemergence herbicidal activity (Example 67); settings: pos, 800 g/ha
Outline: as §2

Zea mays [16] = assay: Postemergence herbicidal activity (Example 67); settings: pos, 800 g/ha
Outline: as §2

Alopecurus myosuroides [17] = assay: Postemergence herbicidal activity (Example 67); settings: pos, 800 g/ha
Outline: as §2

Abutilon theophrasti [18] = assay: Postemergence herbicidal activity (Example 67); settings: pos, 800 g/ha
Outline: as §2

Ipomoea hederacea [19] = assay: Postemergence herbicidal activity (Example 67); settings: pos, 800 g/ha
Outline: as §2

Veronica persica [20] = assay: Postemergence herbicidal activity (Example 67); settings: pos, 800 g/ha
Outline: as §2

Hordeum vulgare [21] = assay: Postemergence herbicidal activity (Example 67); settings: pos, 800 g/ha
Outline: as §2

Galium aparine [22] = assay: Postemergence herbicidal activity (Example 67); settings: pos, 800 g/ha
Outline: as §2

Helianthus annuus [23] = assay: Postemergence herbicidal activity (Example 67); settings: pos, 800 g/ha
Outline: as §2

Amaranthus retroflexus [24] = assay: Postemergence herbicidal activity (Example 67); settings: pos, 800 g/ha
Outline: as §2

[25] = rated about 1-3 weeks after treatment

SMILES: O=C(Nc1ccc(F)cc1F)c1nsc(-c2cccc(C(F)(F)F)c2)n1 [Example 62]
- TRZ AW rating (Triticum aestivum [1]): 0
- CHE AL rating (Chenopodium album [2]): 0
- ZEA MX rating (Zea mays [3]): 0
- ABU TH rating (Abutilon theophrasti [4]): 1 (1-5%)
- IPO HE rating (Ipomoea hederacea [5]): 3 (16-29%)
- VER PE rating (Veronica persica [6]): 0
- GAL AP rating (Galium aparine [7]): 0
- HEL AN rating (Helianthus annuus [8]): 0
- AMA RE rating (Amaranthus retroflexus [9]): 0
- HOR VW rating (Hordeum vulgare [10]): 0
- SET VI rating (Setaria viridis [11]): 0
- ALO MY rating (Alopecurus myosuroides [12]): 3 (16-29%)
- CHE AL rating (Chenopodium album [13]): 1 (1-5%)
- SET VI rating (Setaria viridis [14]): 5 (45-64%)
- TRZ AW rating (Triticum aestivum [15]): 1 (1-5%)
- ZEA MX rating (Zea mays [16]): 1 (1-5%)
- ALO MY rating (Alopecurus myosuroides [17]): 0
- ABU TH rating (Abutilon theophrasti [18]): 0
- IPO HE rating (Ipomoea hederacea [19]): 1 (1-5%)
- VER PE rating (Veronica persica [20]): 0
- HOR VW rating (Hordeum vulgare [21]): 0
- GAL AP rating (Galium aparine [22]): 0
- HEL AN rating (Helianthus annuus [23]): 0
- AMA RE rating (Amaranthus retroflexus [24]): 0

SMILES: COc1ccc(-c2nsc(C(=O)Nc3cccc4c3CCCC4)n2)cc1 [Example 55]
- TRZ AW rating (Triticum aestivum [1]): 0
- CHE AL rating (Chenopodium album [2]): 0
- ZEA MX rating (Zea mays [3]): 0
- ABU TH rating (Abutilon theophrasti [4]): 1 (1-5%)
- IPO HE rating (Ipomoea hederacea [5]): 3 (16-29%)
- VER PE rating (Veronica persica [6]): 2 (6-15%)
- GAL AP rating (Galium aparine [7]): 0
- HEL AN rating (Helianthus annuus [8]): 0
- AMA RE rating (Amaranthus retroflexus [9]): 0
- HOR VW rating (Hordeum vulgare [10]): 0
- SET VI rating (Setaria viridis [11]): 0
- ALO MY rating (Alopecurus myosuroides [12]): 0
- CHE AL rating (Chenopodium album [13]): 0
- SET VI rating (Setaria viridis [14]): 4 (30-44%)
- TRZ AW rating (Triticum aestivum [15]): 1 (1-5%)
- ZEA MX rating (Zea mays [16]): 3 (16-29%)
- ALO MY rating (Alopecurus myosuroides [17]): 0
- ABU TH rating (Abutilon theophrasti [18]): 0
- IPO HE rating (Ipomoea hederacea [19]): 0
- VER PE rating (Veronica persica [20]): 0
- HOR VW rating (Hordeum vulgare [21]): 2 (6-15%)
- GAL AP rating (Galium aparine [22]): 3 (16-29%)
- HEL AN rating (Helianthus annuus [23]): 2 (6-15%)
- AMA RE rating (Amaranthus retroflexus [24]): 0

SMILES: COCCc1nsc(C(=O)NC(C)c2cccs2)n1 (racemic) [Example 33]
- herbicide rating, TRZAW (Triticum aestivum [1]; [25]): 0
- herbicide rating, CHEAL (Chenopodium album [2]; [25]): 2 (6-15%)
- herbicide rating, ZEAMX (Zea mays [3]; [25]): 0
- herbicide rating, ABUTH (Abutilon theophrasti [4]; [25]): 0
- herbicide rating, IPOHE (Ipomoea hederacea [5]; [25]): 0
- herbicide rating, VERPE (Veronica persica [6]; [25]): 5 (45-64%)
- herbicide rating, GALAP (Galium aparine [7]; [25]): 0
- herbicide rating, HELAN (Helianthus annuus [8]; [25]): 0
- herbicide rating, AMARE (Amaranthus retroflexus [9]; [25]): 0
- herbicide rating, HORVW (Hordeum vulgare [10]; [25]): 0
- herbicide rating, SETVI (Setaria viridis [11]; [25]): 0
- herbicide rating, ALOMY (Alopecurus myosuroides [12]; [25]): 0
- herbicide rating, CHEAL (Chenopodium album [13]; rated after 10-21 days): 2 (6-15%)
- herbicide rating, SETVI (Setaria viridis [14]; rated after 10-21 days): 6 (65-79%)
- herbicide rating, TRZAW (Triticum aestivum [15]; rated after 10-21 days): 2 (6-15%)
- herbicide rating, ZEAMX (Zea mays [16]; rated after 10-21 days): 0
- herbicide rating, ALOMY (Alopecurus myosuroides [17]; rated after 10-21 days): 3 (16-29%)
- herbicide rating, ABUTH (Abutilon theophrasti [18]; rated after 10-21 days): 2 (6-15%)
- herbicide rating, IPOHE (Ipomoea hederacea [19]; rated after 10-21 days): 4 (30-44%)
- herbicide rating, VERPE (Veronica persica [20]; rated after 10-21 days): 0
- herbicide rating, HORVW (Hordeum vulgare [21]; rated after 10-21 days): 3 (16-29%)
- herbicide rating, GALAP (Galium aparine [22]; rated after 10-21 days): 3 (16-29%)
- herbicide rating, HELAN (Helianthus annuus [23]; rated after 10-21 days): 4 (30-44%)
- herbicide rating, AMARE (Amaranthus retroflexus [24]; rated after 10-21 days): 0

SMILES: O=C(Nc1ccc(F)cc1)c1nsc(-c2cccc(C(F)(F)F)c2)n1 [Example 63]
- TRZ AW rating (Triticum aestivum [1]): 2 (6-15%)
- CHE AL rating (Chenopodium album [2]): 0
- ZEA MX rating (Zea mays [3]): 0
- ABU TH rating (Abutilon theophrasti [4]): 0
- IPO HE rating (Ipomoea hederacea [5]): 3 (16-29%)
- VER PE rating (Veronica persica [6]): 0
- GAL AP rating (Galium aparine [7]): 0
- HEL AN rating (Helianthus annuus [8]): 0
- AMA RE rating (Amaranthus retroflexus [9]): 0
- HOR VW rating (Hordeum vulgare [10]): 0
- SET VI rating (Setaria viridis [11]): 2 (6-15%)
- ALO MY rating (Alopecurus myosuroides [12]): 4 (30-44%)
- CHE AL rating (Chenopodium album [13]): 0
- SET VI rating (Setaria viridis [14]): 3 (16-29%)
- TRZ AW rating (Triticum aestivum [15]): 0
- ZEA MX rating (Zea mays [16]): 0
- ALO MY rating (Alopecurus myosuroides [17]): 0
- ABU TH rating (Abutilon theophrasti [18]): 1 (1-5%)
- IPO HE rating (Ipomoea hederacea [19]): 0
- VER PE rating (Veronica persica [20]): 0
- HOR VW rating (Hordeum vulgare [21]): 1 (1-5%)
- GAL AP rating (Galium aparine [22]): 0
- HEL AN rating (Helianthus annuus [23]): 0
- AMA RE rating (Amaranthus retroflexus [24]): 0

SMILES: O=C(NCc1cccs1)c1nc(-c2ccccc2F)ns1 [Example 50]
- TRZ AW rating (Triticum aestivum [1]): 0
- CHE AL rating (Chenopodium album [2]): 0
- ZEA MX rating (Zea mays [3]): 0
- ABU TH rating (Abutilon theophrasti [4]): 0
- IPO HE rating (Ipomoea hederacea [5]): 0
- VER PE rating (Veronica persica [6]): 0
- GAL AP rating (Galium aparine [7]): 0
- HEL AN rating (Helianthus annuus [8]): 0
- AMA RE rating (Amaranthus retroflexus [9]): 0
- HOR VW rating (Hordeum vulgare [10]): 1 (1-5%)
- SET VI rating (Setaria viridis [11]): 0
- ALO MY rating (Alopecurus myosuroides [12]): 3 (16-29%)
- CHE AL rating (Chenopodium album [13]): 3 (16-29%)
- SET VI rating (Setaria viridis [14]): 5 (45-64%)
- TRZ AW rating (Triticum aestivum [15]): 1 (1-5%)
- ZEA MX rating (Zea mays [16]): 0
- ALO MY rating (Alopecurus myosuroides [17]): 0
- ABU TH rating (Abutilon theophrasti [18]): 0
- IPO HE rating (Ipomoea hederacea [19]): 0
- VER PE rating (Veronica persica [20]): 0
- HOR VW rating (Hordeum vulgare [21]): 2 (6-15%)
- GAL AP rating (Galium aparine [22]): 2 (6-15%)
- HEL AN rating (Helianthus annuus [23]): 3 (16-29%)
- AMA RE rating (Amaranthus retroflexus [24]): 0
